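Results reflect a 48-hour exposure of cells in 96-well plates to compound at five concentrations. Here, GI50 denotes the concentration required for 50% inhibition of growth.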 Activity calls are given as the source filed them. Rule as the data show it: active = GI50 up to about 1.1 µM and inactive = higher.

Some test systems named below: DLD-1; HOP-18; LXFL 529; KM-20L2; XF498; DMS-273; M19-MEL; BT-549; RXF 631.
Holding throughout (test): NCI anticancer screen, dose series, 48 h

`CN[C@@H]1C[C@H]2O[C@@](C)([C@@H]1OC)n1c3ccccc3c3c4c(c5c6ccccc6n2c5c31)C(=O)N[C@@H]4O`: the GI50 in the assay with DLD-1 was 0.149 µM (active); in the assay on HOP-18, 0.01 µM (active); in the assay with LXFL 529 it was 0.119 µM (active); in the assay with KM-20L2, 0.104 µM (active); with XF498 it was 0.0356 µM (active); in the assay on DMS-273, 0.0352 µM (active). The GI50 in the assay with M19-MEL was 0.135 µM (active); in the assay with BT-549, 0.108 µM (active).

On to `c1cnc2c3[nH]cc4[nH]c5ccccc5c4c-3nc2c1`, for which the GI50 with DLD-1 was 37.8 µM (inactive); in the assay on LXFL 529, 68.1 µM (inactive); with KM-20L2, 76.2 µM (inactive); with XF498, > 100 µM (inactive); in the assay on DMS-273 it was 72.9 µM (inactive); with M19-MEL it was > 100 µM (inactive).

With `CNC(=O)CCCNC(=O)CCCC(=O)N(C)C`, in the assay on BT-549, the GI50 is > 100 µM (inactive).

Consider `COc1cc2c(c(OC)c1OC)CCNC2C1=C(O)COC1=O` (stereo not given), for which the GI50 with RXF 631 was > 100 µM (inactive); with DLD-1 it was > 100 µM (inactive); with HOP-18 it was 95.5 µM (inactive); in the assay with LXFL 529, > 100 µM (inactive); in the assay with KM-20L2, > 100 µM (inactive); in the assay with DMS-273, > 100 µM (inactive). Moreover, the GI50 in the assay on M19-MEL is > 100 µM (inactive).

As for `Cc1cc(Cl)ccc1C1OC(=O)c2c1ccc1ccccc21` (stereo not given), the GI50 in the assay on DLD-1 was > 100 µM (inactive); in the assay on LXFL 529 it was 74.1 µM (inactive); in the assay with KM-20L2, > 100 µM (inactive); with XF498, > 100 µM (inactive); in the assay on DMS-273 it was > 100 µM (inactive); in the assay on M19-MEL it was > 100 µM (inactive).

Regarding `CCCCC(=O)OC[n+]1ccc2c(C)c3[nH]c4ccc(OC)cc4c3c(C)c2c1`, the GI50 in the assay with RXF 631 was 0.345 µM (active); with DLD-1, 0.32 µM (active); with LXFL 529 it was 0.619 µM (active); in the assay with KM-20L2, 0.377 µM (active); with DMS-273, 0.103 µM (active); in the assay with M19-MEL, 0.684 µM (active).

Consider `Cc1ccc(S(=O)(=O)N/N=C/C(C)C)cc1`, for which the GI50 in the assay on RXF 631, with DLD-1, in the assay on HOP-18, with LXFL 529, in the assay on KM-20L2 and with DMS-273 was > 100 µM (inactive) throughout. Besides, in the assay with M19-MEL, the GI50 is > 100 µM (inactive).

As for `Nc1nc(S)nc(C(=O)Nc2nccs2)c1-c1ccccc1`, the GI50 in the assay on DLD-1, with HOP-18, with LXFL 529, in the assay on KM-20L2, in the assay with XF498 and with DMS-273 was > 100 µM (inactive) throughout. The GI50 in the assay on M19-MEL is > 100 µM (inactive).

For the compound `CCOC(=O)NC(Nc1ccc(C)cc1)(C(F)(F)F)C(F)(F)F`, the GI50 with BT-549 is > 100 µM (inactive).

Turning to `CC(=O)c1ccc2c(c1)oc(=O)n2CCN1CCCCC1`, the GI50 in the assay on BT-549 is > 100 µM (inactive).

Take `O=Cc1ccc2c(c1I)OCO2`: the GI50 in the assay on DLD-1, with HOP-18, in the assay with KM-20L2, in the assay on DMS-273 and with M19-MEL was > 100 µM (inactive) throughout.

Consider `O=[N+]([O-])c1ccc(-c2noc(-c3ccc(Cl)cc3)c2C2=NCCN2)cc1`, for which the GI50 was > 100 µM (inactive) in the assay on DLD-1; 94.2 µM (inactive) with HOP-18; > 100 µM (inactive) in the assay with LXFL 529; > 100 µM (inactive) in the assay with KM-20L2; > 100 µM (inactive) in the assay on XF498; > 100 µM (inactive) in the assay with M19-MEL.

Regarding `COc1ccc2c(c1)OC[C@@H]1c3cc4c(cc3O[C@H]21)OCO4`, the GI50 is > 100 µM (inactive) in the assay with DLD-1; 37.2 µM (inactive) in the assay on HOP-18; > 100 µM (inactive) in the assay on LXFL 529; > 100 µM (inactive) in the assay on KM-20L2; > 100 µM (inactive) in the assay with XF498; > 100 µM (inactive) in the assay on DMS-273.

Consider `Cc1ccc2sc3cc(=O)cc(C)c-3nc2c1`, for which the GI50 was 54.1 µM (inactive) in the assay with RXF 631; 76 µM (inactive) in the assay on DLD-1; > 100 µM (inactive) with HOP-18; 28 µM (inactive) in the assay with LXFL 529; > 100 µM (inactive) with KM-20L2; 43.3 µM (inactive) with DMS-273. Further, the GI50 with M19-MEL is 16 µM (inactive).

As for `C=CC(=O)c1ccc2c(c1)OCCOCCOCCOCCOCCO2`, the GI50 was 16.4 µM (inactive) in the assay with DLD-1; 16.1 µM (inactive) in the assay with HOP-18; 16.9 µM (inactive) with LXFL 529; 30.2 µM (inactive) in the assay on KM-20L2; 15.3 µM (inactive) in the assay on XF498; 15.7 µM (inactive) in the assay on DMS-273. Moreover, the GI50 in the assay with M19-MEL was 17.8 µM (inactive); in the assay with BT-549 it was 19.9 µM (inactive).

Consider `CS(=O)(=O)OCCN1CCN(C(=O)c2cccc3c(Nc4ccc(S(N)(=O)=O)cc4)c4ccccc4nc23)CC1`, for which the GI50 is > 100 µM (inactive) in the assay on RXF 631; > 46.8 µM (inactive) with DLD-1; > 100 µM (inactive) in the assay with HOP-18; > 100 µM (inactive) with LXFL 529; > 100 µM (inactive) with KM-20L2; > 100 µM (inactive) in the assay with XF498. The results for the GI50 with DMS-273 and in the assay with M19-MEL were > 100 µM (inactive) and > 81.8 µM (inactive), respectively.

For the compound `CCOC(=O)c1sc2c(C(=O)OCC)n3ccccc3c2c1N`, the GI50 in the assay on DLD-1 was 82.2 µM (inactive); in the assay with HOP-18, > 100 µM (inactive); in the assay with KM-20L2, > 100 µM (inactive); in the assay with XF498, 25.3 µM (inactive); with DMS-273, 53.6 µM (inactive); in the assay with M19-MEL it was > 100 µM (inactive).

With `CC(=O)Nc1ccc(S(=O)(=O)N/N=C/c2cc(I)cc([N+](=O)[O-])c2O)cc1`, the GI50 with RXF 631 is > 100 µM (inactive); with DLD-1, > 100 µM (inactive); in the assay on HOP-18 it was 27.7 µM (inactive); in the assay on KM-20L2, > 100 µM (inactive); in the assay with XF498, 24.1 µM (inactive); in the assay with DMS-273, 62.4 µM (inactive). In the assay on M19-MEL, the GI50 was 66.4 µM (inactive).

For `Nc1c(-c2cn(Cc3ccccc3)c3ccccc23)[n+]([O-])c2ccccc2[n+]1[O-]`, the GI50 with DLD-1 is 32.7 µM (inactive); in the assay with LXFL 529 it was 23.9 µM (inactive); in the assay on KM-20L2 it was 34.6 µM (inactive); with XF498, 12.6 µM (inactive); in the assay on DMS-273 it was 23.8 µM (inactive); in the assay with M19-MEL it was 38.9 µM (inactive).

Regarding `COc1cc2c(oc(=O)c3c4oc([Si](C)(C)C)cc4cc(OC)c23)c2cccc(OCc3ccccc3)c12`, the GI50 with DLD-1 was 55 µM (inactive); with HOP-18, 28 µM (inactive); in the assay with LXFL 529 it was 27.2 µM (inactive); with KM-20L2 it was > 66.1 µM (inactive); with XF498, 8.32 µM (inactive); with DMS-273 it was 25.3 µM (inactive). Also, the GI50 in the assay with M19-MEL is 48.2 µM (inactive).

Consider `Cc1cccc(-c2nc3c(C(=O)NCCN(C)C)cccc3[nH]2)c1`, for which the GI50 in the assay with RXF 631 is 0.394 µM (active); with DLD-1 it was 0.407 µM (active); with HOP-18, 0.605 µM (active); in the assay with DMS-273, 0.411 µM (active); with M19-MEL, 1.67 µM (inactive).

As to `COC(=O)CCC(=O)N1Cc2cc(C)ccc2N(C(=O)CCC(=O)OC)Cc2cc(C)ccc21`, the GI50 in the assay on DLD-1, in the assay on HOP-18, in the assay with XF498, in the assay on DMS-273 and with M19-MEL was > 100 µM (inactive) in each case.

Take `c1ccc(P(=C2c3ccccc3-c3ccccc32)(c2ccccc2)c2ccccc2)cc1`: the GI50 is 5.64 µM (inactive) with RXF 631; 4.32 µM (inactive) with DLD-1; 4.47 µM (inactive) with HOP-18; 3.85 µM (inactive) in the assay with LXFL 529; 2.56 µM (inactive) in the assay on KM-20L2; 5.04 µM (inactive) in the assay with DMS-273. Also, the GI50 in the assay on M19-MEL is 4.94 µM (inactive).

`O=C1/C(=N\O)C2CCC1C2` (stereo not given): the GI50 in the assay with HOP-18, in the assay with LXFL 529, in the assay with KM-20L2, in the assay with DMS-273 and in the assay with M19-MEL was > 100 µM (inactive) throughout.

In the case of `CC1=CC(=O)C(=O)C2=C1OC1(C2)C(C)CCC2C3(C)CCC(O)C(C)(C)C3CCC21C` (stereo not given), the GI50 in the assay with DLD-1 was 20.1 µM (inactive); in the assay with LXFL 529, 15.5 µM (inactive); in the assay with KM-20L2, 18.7 µM (inactive); in the assay on XF498, 18.2 µM (inactive); in the assay with DMS-273, 24.9 µM (inactive); in the assay with M19-MEL it was 18.4 µM (inactive).

Take `CC(C)(C)c1cc(C(=O)/C=C/c2ccc3c(c2)OCO3)cc(C(C)(C)C)c1O`: the GI50 in the assay with BT-549 is 6.3 µM (inactive).

In the case of `COC(=O)c1ccc(NCc2cc(O)c3ccccc3c2O)cc1`, the GI50 with BT-549 is 16.6 µM (inactive).

Consider `Cc1ccccc1S(=O)(=O)OC1NS(=O)(=O)c2ccccc21` (stereo not given), for which the GI50 in the assay on BT-549 was > 100 µM (inactive).

With `Nc1ccc2c(c1)S(=O)(=O)c1cc(N)ccc1-2`, the GI50 in the assay with BT-549 is > 100 µM (inactive).

As to `CS(=O)(=O)OCCCOS(C)(=O)=O`, the GI50 in the assay on DLD-1, in the assay on HOP-18, in the assay on LXFL 529, in the assay on KM-20L2, in the assay with XF498 and in the assay with DMS-273 was > 100 µM (inactive) throughout. In addition, the GI50 in the assay with M19-MEL was > 100 µM (inactive).

`COC(=O)CC(=O)OC1C[C@@H]2CCC3C(C)(C)CCC[C@]3(C)C23CC[C@@]1(C)C3` (stereo not given in full): the GI50 is 18.8 µM (inactive) in the assay with DLD-1, 20 µM (inactive) in the assay with KM-20L2, 19 µM (inactive) in the assay on XF498 and 19.1 µM (inactive) in the assay on M19-MEL.

`C/C(=C\CC[C@]1(C)OC(C)(C)OC1CC/C(C)=C/CO[Si](c1ccccc1)(c1ccccc1)C(C)(C)C)CC/C=C/CO[Si](C)(C)C(C)(C)C` (stereo not given in full): the GI50 in the assay with DLD-1, in the assay on KM-20L2, in the assay on DMS-273 and in the assay with M19-MEL was > 100 µM (inactive) in each case.

For `C=C(C)[C@@H]1CC[C@]2(C(=O)O)CC[C@]3(C)[C@H](CC[C@@H]4[C@@]5(C)CC[C@H](O)C(C)(C)[C@@H]5CC[C@]43C)[C@@H]12` [BETULINIC ACID], in the assay with BT-549, the GI50 is 2.53 µM (inactive).

Consider `COc1ccc(-c2cc(=O)c3c(O)c(OC)c(OC)c(OC)c3o2)cc1` [GARDENIN B], for which, in the assay on BT-549, the GI50 was 16.2 µM (inactive).

These data come from ChEMBL document CHEMBL1201862, “PubChem BioAssay data set” (2004).
